From the SangsterLogP compilation

Key:
[1] = method code SF-HPLC, from DOI: 10.1002/jps.2600831027, PMID: 7884677; details: pH 2.0
[2] = method code SF, from DOI: 10.1016/j.tca.2004.05.019
[3] = method code SF-AS, from DOI: 10.1016/0009-2797(77)90097-7, PMID: 407012; details: pH 7.0
[4] = method code SF-AS, from DOI: 10.1016/0378-5173(80)90117-9
[5] = method code SF-AS, from DOI: 10.1111/j.1440-1681.1976.tb00621.x, PMID: 10116
[6] = not given; remark: listed apart in the source
[7] = from Bazaco, J.; Coca, C. (1989). Relation between the partition coefficient (Log Pow) and capacity factor (Log k') derived from reversed-phase HPLC of a series of benzaldehyde derivatives. Ciencia e …
[8] = method code SF-HPLC, from DOI: 10.1002/ps.2780190203; details: pH 1.0
[9] = not given; remark: listed apart in the source
[10] = method code SF-HPLC, from DOI: 10.1002/jat.2550130210, PMID: 8486911; details: pH 13.0
[11] = method code SF-HPLC, from DOI: 10.1002/jps.2600780218, PMID: 2715940; details: pH 7.4
[12] = method code SF, from DOI: 10.1002/ps.2780340212; details: pH 7.0
[13] = method code SF, from PMID: 2704; details: pH 1.0
[14] = method code SF-RC, from DOI: 10.1002/ps.2780300102; details: pH 1.0
[15] = method code SF-GLC, from DOI: 10.1002/jps.2600600712, PMID: 4398902
[16] = method code SF-AS, from DOI: 10.1021/jm00299a013, PMID: 5458368
[17] = method code SF-GLC, from DOI: 10.1021/je00020a050
[18] = not given; remark: listed apart in the source
[19] = not given; remark: listed apart in the source
[20] = from Rich, R. (1990). Partition coefficients of quinones and their relation to biochemical reactivity. In Lenaz, G. (Ed.), Highlights in Ubiquinone Research: Proceedings of the International Symposium, …
[21] = method code SF-HPLC, from DOI: 10.1002/etc.5620110812
[22] = method code SF-RC, from DOI: 10.1111/j.2042-7158.1987.tb06949.x, PMID: 2882008; details: pH 1.0
[23] = method code SF-MS, from DOI: 10.1016/j.fluid.2014.01.017; details: pH 7.6
[24] = method code SF-HPLC, from DOI: 10.1016/s0021-9673(01)83534-2
[25] = not given; remark: listed apart in the source
[26] = method code SF-AS, from DOI: 10.1248/cpb.35.377
[27] = not given; remark: listed apart in the source
[28] = not given; remark: listed apart in the source
[29] = method code SF-AS, from DOI: 10.1248/cpb.26.2824
[30] = not given; remark: listed apart in the source
[31] = method code SF-CR, from DOI: 10.1248/cpb.21.2417, PMID: 4779830; details: pH 6.0
[32] = not given; remark: listed apart in the source
[33] = not given; remark: listed apart in the source
[34] = method code SF, from Brown, J.; Yu, N.; Cory, M.; Bicknell, R.; Taylor, D. (1978). In vivo evaluation of the radiosensitizing and cytotoxic properties of newly synthesized electron-affinic drugs. 3, 206-211.
[35] = not given; remark: listed apart in the source
[36] = method code SF-AS, from DOI: 10.1248/cpb.36.1393
[37] = method code SF-RC, from DOI: 10.1021/jm201482p, PMID: 22339166; details: pH 6.8
[38] = method code SF-AS, from Holmes, L.; Lough, E. (1976). Effect of Intramolecular Hydrogen Bonding on Partition Coefficients [Technical Note]. Defence Research Establishment Suffield.
[39] = method code SF, from Dai, J-Y.; Han, S.; Wang, L. (2000). Prediction of partition properties of substituted benzaldehydes using different structural parameters. Zhongguo Huanjing Kexue (China Environmental Science), …

For NC(=O)Cc1ccc(C(=O)O)cc1, the logD [1] was 0.3.

With Cc1ssc(=S)c1CCC(=O)O the logP [2] was 2.04.

Work on CN(CO)c1nc(N(C)CO)nc(N(C)CO)n1 yielded a logD [3] of 0.4.

O=C(O)Cn1c(=O)sc2cccc(Cl)c21 gave a logP of 2.21.

In the case of CCCCc1ccc(O)cc1, the logP [4] is reported as 3.65.

For CCC(Cl)(CC)C(=O)NC(N)=O, the logP [5] was 1.4.

Work on O=[N+]([O-])c1ccc(Oc2c(Cl)cc(Cl)cc2Cl)cc1 yielded a logP [6] of 4.97.

In the case of COc1cccc(C=O)c1, the logP [7] is reported as 1.71.

In the case of O=C(O)Cc1ccc(Cl)c(Cl)c1, the logP is reported as 2.9.

In the case of O=C(O)COc1cc(Cl)cc(Cl)c1, the logD [8] is reported as 2.84.

Molecule CON=C(C#N)C(=O)N[C@@H](CSC)C(=O)O has a logP [9] of 0.52.

With CCCCCCCCN the logD [10] was 3.3.

For CC(=O)N(C)c1ccc([N+](=O)[O-])cc1, the logD [11] was 0.91.

CS(=O)(=O)c1cccc(NC(N)=O)c1 showed a logD [12] of -0.1.

In the case of Cc1ccccc1OCC(=O)O, the logD [13] is reported as 1.96.

CS(=O)(=O)c1ccc(CC(=O)O)cc1 showed a logD [14] of 0.06.

With O=C1CCCCCCN1 the logP [15] was 0.24.

Cc1ncc([N+](=O)[O-])n1CCS(C)(=O)=O gave a logP [16] of -0.82.

Work on COc1cc(Cl)c(Cl)cc1OC yielded a logP [17] of 3.11.

With O=C(O)CCc1ccc(I)cc1 the logP [18] was 2.81.

Work on CCc1ccc(C(=O)O)cc1 yielded a logP [19] of 2.85.

Molecule COc1c(O)ccc(O)c1OC has a logP [20] of 0.61.

Molecule N#CSCSc1nc2ccccc2s1 has a logP [21] of 3.12.

Work on COc1ccc(O)cc1 yielded a logP [4] of 1.57.

With CC(=O)Nc1ccc(C(=O)O)c(O)c1 the logD [22] was 1.62.

Work on COc1c(Cl)cc(Cl)cc1Cl yielded a logP [17] of 4.02.

Molecule CCCCCC/C=C/C=O has a logD [23] of 3.11.

COC(=O)c1cc([N+](=O)[O-])cc([N+](=O)[O-])c1 gave a logP [24] of 1.84.

In the case of COCCCNc1nc(NC(C)C)nc(SC)n1, the logP [25] is reported as 2.96.

For OCc1cc(Cl)cc(Cl)c1, the logP [26] was 2.9.

In the case of CC(C)c1ccc(C(=O)O)cc1, the logP [19] is reported as 3.24.

Work on COc1c(Cl)cc(Cl)c(Cl)c1Cl yielded a logP [27] of 4.75.

CCOCC(O)Cn1ccnc1[N+](=O)[O-] (centres undefined) gave a logP [28] of -0.07.

CCCCc1c(C)[nH]c(NCC)nc1=O showed a logD [12] of 2.2.

Molecule CCCCCC(C)(C)N has a logD [10] of 2.19.

Cc1ccccc1C(=O)O showed a logP [29] of 2.18.

Work on CN(C)c1nc(Cl)nc(N(C)C)n1 yielded a logD [3] of 2.31.

CON(C)C(=O)Nc1ccc(Cl)c(Cl)c1 showed a logP [30] of 3.

Work on CN(c1ccccn1)S(=O)(=O)c1ccc(N)cc1 yielded a logD [31] of 1.3.

S=C=Nc1cccc2c(N=C=S)cccc12 gave a logP [32] of 4.43.

For Sc1nc2ccccc2s1, the logP [21] was 2.41.

CC(=O)Nc1ccc(C#N)cc1 showed a logD [11] of 1.36.

Molecule O=C1CCCCCCCN1 has a logP [15] of 0.67.

CSc1nc(N=[N+]=[N-])nc(NC(C)C)n1 gave a logP [25] of 3.27.

O=Cc1ssc(=S)c1CCC(=O)O showed a logP [2] of 2.73.

In the case of COc1ccc(C=O)cc1OC, the logP [7] is reported as 1.22.

For CCC(CC)(OC)C(=O)NC(N)=O, the logP [5] was 0.96.

With CC(C)=NNc1ccc([N+](=O)[O-])cc1[N+](=O)[O-] the logP [24] was 3.05.

With O=C(O)Cc1ccc(Cl)cc1 the logD [14] was 2.2.

Molecule CC(=O)c1ccccc1 has a logP [33] of 1.71.

Molecule CCS(=O)(=O)CCn1ccnc1[N+](=O)[O-] has a logP [34] of -0.58.

COC(=O)COc1ccccc1C showed a logD [13] of 2.08.

CCCCC/C=C\C=O gave a logD [23] of 2.38.

Molecule CCCCn1ccc(=O)c(O)c1 has a logP [35] of 0.72.

With N#CCc1ccccc1 the logP [33] was 1.47.

Work on O=C(O)Cc1cccc(I)c1 yielded a logD [22] of 2.49.

Molecule [O-][n+]1ccc(Nc2ccc(O)cc2)c2ccc(Cl)cc21 has a logD ([36]; pH 2.8) of 1.23.

O=C(O)CNC(=O)c1ccccc1I gave a logP [18] of 1.08.

Molecule O=C(O)c1ccccc1[N+](=O)[O-] has a logP [29] of 1.46.

With N#CCc1ccc(C(=O)O)cc1 the logD [1] was 1.18.

CC(C)(C)c1cc(C(C)(C)C)c2c(c1F)CO[P@@](=O)(OC[C@H]1O[C@@H](n3cc(I)c(=O)[nH]c3=O)C[C@@H]1O)O2 showed a logD [37] of 2.23.

Molecule COc1c(Cl)c(Cl)cc(Cl)c1Cl has a logP [27] of 4.68.

In the case of C/C=C/OCC(O)Cn1ccnc1[N+](=O)[O-] (centres undefined), the logP [28] is reported as 0.28.

Oc1ccc2ccccc2c1 showed a logP [26] of 2.75.

Clc1ccc2c(Cl)ccnc2c1 showed a logD ([36]; pH 7.4) of 3.57.

For CCC(=O)c1ccc(O)cc1, the logP [38] was 2.03.

CC1=C(C)C(=O)C=CC1=O showed a logP [20] of 1.23.

With S=C=Nc1ccc(N=C=S)cc1 the logP [32] was 2.8.

Work on O=Cc1ccc(Cl)c(Cl)c1 yielded a logP [39] of 2.53.

Cc1ncc([N+](=O)[O-])n1CCS(=O)(=O)C(C)C showed a logP [16] of 0.13.

CN1CC(O)N(c2nnc(C(C)(C)C)s2)C1=O (centres undefined) showed a logP [30] of 1.45.

Molecule CCC(=O)c1ccccc1O has a logP [38] of 2.54.

With CN(C)S(=O)(=O)c1ccc(N)cc1 the logD [31] was 0.67.

Molecule O=C1OC(=O)c2c(Cl)c(Cl)c(Cl)c(Cl)c21 has a logP [6] of 3.09.

O=C(O)COc1ccc(Oc2ccc(Cl)cc2Cl)cc1 gave a logD [8] of 4.51.

Molecule COCC(=O)Cn1ccnc1[N+](=O)[O-] has a logP [34] of -0.26.

For CCn1ccc(=O)c(O)c1, the logP [35] was -0.4.

With CON=C(C#N)C(=O)N[C@@H](CS(C)(=O)=O)C(=O)O the logP [9] was -0.73.

Molecule O=c1[nH]c(=O)n([C@H]2CC(F)[C@@H](CO)O2)cc1I (some centres undefined) has a logD [37] of -0.03.
